# According to ChEMBL document CHEMBL1201861, “Genomics of Drug Sensitity in Cancer screening data, Wellcome Trust Sanger Institute”:
# Experiments:
# Experiment in all cases: cells
# LS-411N = type: functional, cell-based, Homo sapiens; conditions: Homo sapiens, LS-411N
# TE-11 = type: functional, cell-based, Homo sapiens; conditions: Homo sapiens, TE-11;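 note: growth inhibition of human TE-11 cells, read out by a cell viability assay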
# Description: SANGER: Inhibition of human TE-11 cell growth in a cell viability assay.
# NOS-1 = type: functional, cell-based, Homo sapiens; conditions: Homo sapiens, NOS-1;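 note: growth inhibition of the human NOS-1 cell line, read out with a cell viability assay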
# Description: SANGER: Inhibition of human NOS-1 cell growth in a cell viability assay.
# NCI-H1838 = type: functional, cell-based, Homo sapiens; conditions: Homo sapiens, NCI-H1838;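 note: growth inhibition of NCI-H1838 cells, determined with a cell viability readout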
# Description: SANGER: Inhibition of human NCI-H1838 cell growth in a cell viability assay.
# TK-10 = type: functional, cell-based, Homo sapiens; conditions: Homo sapiens, TK-10;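 note: growth inhibition of TK-10 cells, read out in a cell viability assay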
# Description: SANGER: Inhibition of human TK10 cell growth in a cell viability assay.
# COLO-800 = type: functional, cell-based, Homo sapiens; conditions: Homo sapiens, COLO-800;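 note: growth inhibition of COLO-800 cells, read out with a cell viability assay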
# Description: SANGER: Inhibition of human COLO-800 cell growth in a cell viability assay.
# EC-GI-10 = type: functional, cell-based, Homo sapiens; conditions: Homo sapiens, EC-GI-10
# Description: SANGER: Inhibition of human EC-GI-10 cell growth in a cell viability assay.
# CAS-1 = type: functional, cell-based, Homo sapiens; conditions: Homo sapiens, CAS-1;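 note: growth inhibition of CAS-1 cells, measured with a cell viability assay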
# Description: SANGER: Inhibition of human CAS-1 cell growth in a cell viability assay.
# TE-10 = type: functional, cell-based, Homo sapiens; conditions: Homo sapiens, TE-10;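 note: growth inhibition of TE-10 cells, measured by a cell viability assay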
# Description: SANGER: Inhibition of human TE-10 cell growth in a cell viability assay.
# ES3 = type: functional, cell-based, Homo sapiens; conditions: Homo sapiens, ES3;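 note: growth inhibition of ES3 cells, read out with a cell viability assay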
# Description: SANGER: Inhibition of human ES3 cell growth in a cell viability assay.
# SW684 = type: functional, cell-based, Homo sapiens; conditions: Homo sapiens, SW684;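 note: growth inhibition of human SW684 cells, measured by a cell viability assay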
# Description: SANGER: Inhibition of human SW684 cell growth in a cell viability assay.
# SK-LMS-1 = type: functional, cell-based, Homo sapiens; conditions: Homo sapiens, SK-LMS-1;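 note: growth inhibition of human SK-LMS-1 cells, read out with a cell viability assay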
# Description: SANGER: Inhibition of human SK-LMS-1 cell growth in a cell viability assay.
# HEL = type: functional, cell-based, Homo sapiens; conditions: Homo sapiens, HEL;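 note: growth inhibition of HEL cells, read out with a cell viability assay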
# Description: SANGER: Inhibition of human HEL cell growth in a cell viability assay.
# NCI-H226 = type: functional, cell-based, Homo sapiens; conditions: Homo sapiens, NCI-H226;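 note: cell viability read-out used to gauge growth inhibition of the cells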
# Description: SANGER: Inhibition of human NCI-H226 cell growth in a cell viability assay.
# SJSA-1 = type: functional, cell-based, Homo sapiens; conditions: Homo sapiens, SJSA-1;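 note: growth inhibition of human SJSA-1 cells, read out through a cell viability measurement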
# Description: SANGER: Inhibition of human SJSA-1 cell growth in a cell viability assay.
# LB771-HNC = type: functional, cell-based, Homo sapiens; conditions: Homo sapiens, LB771-HNC;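 note: growth inhibition of LB771-HNC human cells, read out with a cell viability assay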
# Description: SANGER: Inhibition of human LB771-HNC cell growth in a cell viability assay.
# KLE = type: functional, cell-based, Homo sapiens; conditions: Homo sapiens, KLE;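 note: growth inhibition of human KLE cells, read out with a cell viability assay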
# Description: SANGER: Inhibition of human KLE cell growth in a cell viability assay.
# KNS-42 = type: functional, cell-based, Homo sapiens; conditions: Homo sapiens, KNS-42;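 note: growth inhibition of KNS-42 cells, read out with a cell viability assay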
# Description: SANGER: Inhibition of human KNS-42 cell growth in a cell viability assay.
# ES6 = type: functional, cell-based, Homo sapiens; conditions: Homo sapiens, ES6;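 note: growth inhibition of human ES6 cells, read out with a cell viability assay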
# Description: SANGER: Inhibition of human ES6 cell growth in a cell viability assay.
# EKVX = type: functional, cell-based, Homo sapiens; conditions: Homo sapiens, EKVX;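 note: growth inhibition of human EKVX cells, read out with a cell viability assay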
# Description: SANGER: Inhibition of human EKVX cell growth in a cell viability assay.
# KNS-81-FD = type: functional, cell-based, Homo sapiens; conditions: Homo sapiens, KNS-81-FD;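 note: growth inhibition of KNS-81-FD cells, read out with a cell viability assay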
# Description: SANGER: Inhibition of human KNS-81-FD cell growth in a cell viability assay.
# KS-1 = type: functional, cell-based, Homo sapiens; conditions: Homo sapiens, KS-1;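 note: growth inhibition of KS-1 cells, read out with a cell viability assay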
# Description: SANGER: Inhibition of human KS-1 cell growth in a cell viability assay.
# KM12 = type: functional, cell-based, Homo sapiens; conditions: Homo sapiens, KM12;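 note: KM12 cell growth inhibition, read out with a cell viability assay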
# Description: SANGER: Inhibition of human KM12 cell growth in a cell viability assay.
# D283 Med = type: functional, cell-based, Homo sapiens; conditions: Homo sapiens, D283 Med
# Description: SANGER: Inhibition of human D-283MED cell growth in a cell viability assay.
# MFM-223 = type: functional, cell-based, Homo sapiens; conditions: Homo sapiens, MFM-223
# Description: SANGER: Inhibition of human MFM-223 cell growth in a cell viability assay.
# HD-MY-Z = type: functional, cell-based, Homo sapiens; conditions: Homo sapiens, HD-MY-Z;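 note: growth inhibition of HD-MY-Z cells, read out with a cell viability assay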
# Description: SANGER: Inhibition of human HD-MY-Z cell growth in a cell viability assay.
# LB373-MEL-D = type: functional, cell-based, Homo sapiens; conditions: Homo sapiens, LB373-MEL-D;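 note: growth inhibition of the cell line, read out in a cell viability assay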
# Description: SANGER: Inhibition of human LB373-MEL-D cell growth in a cell viability assay.
# NTERA-2-cl-D1 = type: functional, cell-based, Homo sapiens; conditions: Homo sapiens, NTERA-2-cl-D1;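 note: inhibition of cell growth, measured with a cell viability assay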
# Description: SANGER: Inhibition of human NTERA-S-cl-D1 cell growth in a cell viability assay.
# ES4 = type: functional, cell-based, Homo sapiens; conditions: Homo sapiens, ES4;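 note: growth inhibition of human ES4 cells, read out by a cell viability assay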
# Description: SANGER: Inhibition of human ES4 cell growth in a cell viability assay.
# LS-1034 = type: functional, cell-based, Homo sapiens; conditions: Homo sapiens, LS-1034
# Description: SANGER: Inhibition of human LS-1034 cell growth in a cell viability assay.
# DSH1 = type: functional, cell-based, Homo sapiens; conditions: Homo sapiens, DSH1;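 note: growth inhibition of human DSH1 cells, measured with a cell viability readout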
# Description: SANGER: Inhibition of human DSH1 cell growth in a cell viability assay.
# ES5 = type: functional, cell-based, Homo sapiens; conditions: Homo sapiens, ES5;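 note: growth inhibition of human ES5 cells, read out by a cell viability assay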
# Description: SANGER: Inhibition of human ES5 cell growth in a cell viability assay.
# CTV-1 = type: functional, cell-based, Homo sapiens; conditions: Homo sapiens, CTV-1;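 note: growth inhibition of the cell line, read out with a cell viability assay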
# Description: SANGER: Inhibition of human CTV-1 cell growth in a cell viability assay.
# SK-NEP-1 = type: functional, cell-based, Homo sapiens; conditions: Homo sapiens, SK-NEP-1;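 note: growth inhibition of human SK-NEP-1 cells, read out by a cell viability assay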
# Description: SANGER: Inhibition of human SK-NEP-1 cell growth in a cell viability assay.
# A3-KAW = type: functional, cell-based, Homo sapiens; conditions: Homo sapiens, A3-KAW;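 note: growth inhibition of human A3-KAW cells, read out with a cell viability assay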
# Description: SANGER: Inhibition of human A3-KAW cell growth in a cell viability assay.
# HCC2218 = type: functional, cell-based, Homo sapiens; conditions: Homo sapiens, HCC2218;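 note: cell viability assay read-out, with IC50 given as the concentration that inhibits growth of the cell line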
# Description: SANGER: Inhibition of human HCC2218 cell growth in a cell viability assay.
# MOLT-16 = type: functional, cell-based, Homo sapiens; conditions: Homo sapiens, MOLT-16;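 note: growth inhibition of human MOLT-16 cells, read out with a cell viability assay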
# Description: SANGER: Inhibition of human MOLT-16 cell growth in a cell viability assay.
# J-RT3-T3-5 = type: functional, cell-based, Homo sapiens; conditions: Homo sapiens, J-RT3-T3-5;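 note: cell viability assay measuring growth inhibition of human J-RT3-T3-5 cells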
# Description: SANGER: Inhibition of human J-RT3-T3-5 cell growth in a cell viability assay.
# NCI-H720 = type: functional, cell-based, Homo sapiens; conditions: Homo sapiens, NCI-H720;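 note: growth inhibition of human NCI-H720 cells determined by a cell viability assay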
# Description: SANGER: Inhibition of human NCI-H720 cell growth in a cell viability assay.
# MV4-11 = type: functional, cell-based, Homo sapiens, MV-4-11; conditions: Homo sapiens, MV4-11;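 note: cell viability readout measuring growth inhibition of human MV-4-11 cells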
# Description: SANGER: Inhibition of human MV-4-11 cell growth in a cell viability assay.
# EOL1 = type: functional, cell-based, Homo sapiens; conditions: Homo sapiens, EOL1;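 note: growth inhibition of EoL-1 cells, read out by a cell viability assay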
# Description: SANGER: Inhibition of human EoL-1-cell cell growth in a cell viability assay.
# LU-139 = type: functional, cell-based, Homo sapiens; conditions: Homo sapiens, LU-139
# Description: SANGER: Inhibition of human LU-139 cell growth in a cell viability assay.
# COLO-684 = type: functional, cell-based, Homo sapiens; conditions: Homo sapiens, COLO-684
# Description: SANGER: Inhibition of human COLO-684 cell growth in a cell viability assay.
# HAL-01 = type: functional, cell-based, Homo sapiens; conditions: Homo sapiens, HAL-01;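 note: growth inhibition of human HAL-01 cells, read out with a cell viability assay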
# Description: SANGER: Inhibition of human HAL-01 cell growth in a cell viability assay.
# NCI-H69 = type: functional, cell-based, Homo sapiens; conditions: Homo sapiens, NCI-H69;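 note: growth inhibition of the cell line, read out with a cell viability assay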
# Description: SANGER: Inhibition of human NCI-H69 cell growth in a cell viability assay.
# SNU1 = type: functional, cell-based, Homo sapiens; conditions: Homo sapiens, SNU1;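 note: growth inhibition of human NCI-SNU-1 cells, measured with a cell viability assay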
# Description: SANGER: Inhibition of human NCI-SNU-1 cell growth in a cell viability assay.
# ATN-1 = type: functional, cell-based, Homo sapiens; conditions: Homo sapiens, ATN-1;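 note: growth inhibition of human ATN-1 cells, read out with a cell viability assay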
# Description: SANGER: Inhibition of human ATN-1 cell growth in a cell viability assay.
# KY821 = type: functional, cell-based, Homo sapiens; conditions: Homo sapiens, KY821;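 note: growth inhibition of human KY821 cells, read out by a cell viability assay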
# Description: SANGER: Inhibition of human KY821 cell growth in a cell viability assay.
# HC-1 = type: functional, cell-based, Homo sapiens; conditions: Homo sapiens, HC-1;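 note: growth inhibition of HC-1 cells measured by a cell viability assay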
# Description: SANGER: Inhibition of human HC-1 cell growth in a cell viability assay.
structure (smiles),measurement,setting,value
CC(C)c1ccccc1Cc1cc(C(=O)Nc2ccc(S(=O)(=O)c3ccccc3C(C)(C)C)cc2)c(O)c(O)c1O,IC50,LS-411N,1.24 µM
same,IC50,TE-11,0.151 µM
same,IC50,NOS-1,0.235 µM
same,IC50,NCI-H1838,2.16 µM
same,IC50,TK-10,0.462 µM
same,IC50,COLO-800,0.183 µM
same,IC50,EC-GI-10,0.47 µM
same,IC50,CAS-1,2.78 µM
same,IC50,TE-10,1.23 µM
same,IC50,ES3,0.359 µM
same,IC50,SW684,8.83 µM
same,IC50,SK-LMS-1,0.272 µM
same,IC50,HEL,0.522 µM
same,IC50,NCI-H226,2.46 µM
same,IC50,SJSA-1,0.327 µM
same,IC50,LB771-HNC,0.166 µM
same,IC50,KLE,1.94 µM
same,IC50,KNS-42,2.54 µM
same,IC50,ES6,0.373 µM
same,IC50,EKVX,7.14 µM
same,IC50,KNS-81-FD,0.248 µM
same,IC50,KS-1,0.322 µM
same,IC50,KM12,1.88 µM
same,IC50,D283 Med,0.284 µM
same,IC50,MFM-223,0.847 µM
same,IC50,HD-MY-Z,0.395 µM
same,IC50,LB373-MEL-D,0.431 µM
same,IC50,NTERA-2-cl-D1,0.167 µM
same,IC50,ES4,0.516 µM
same,IC50,LS-1034,1.36 µM
same,IC50,DSH1,0.517 µM
same,IC50,ES5,0.884 µM
CC(C)CCN1c2nc(Nc3cc(F)c(O)c(F)c3)ncc2N(C)C(=O)C1C (stereo not given),IC50,LS-411N,> 5 µM
same,IC50,TE-11,> 5 µM
same,IC50,NOS-1,> 5 µM
same,IC50,NCI-H1838,> 5 µM
same,IC50,CTV-1,0.479 µM
same,IC50,TK-10,> 5 µM
same,IC50,SK-NEP-1,2.04 µM
same,IC50,COLO-800,2.54 µM
same,IC50,CAS-1,> 5 µM
same,IC50,TE-10,> 5 µM
same,IC50,ES3,> 5 µM
same,IC50,SW684,> 5 µM
same,IC50,A3-KAW,1.63 µM
same,IC50,HCC2218,> 5 µM
same,IC50,MOLT-16,> 5 µM
same,IC50,SK-LMS-1,> 5 µM
same,IC50,HEL,2.7 µM
same,IC50,NCI-H226,> 5 µM
same,IC50,SJSA-1,2.67 µM
same,IC50,LB771-HNC,> 5 µM
same,IC50,J-RT3-T3-5,> 5 µM
same,IC50,KLE,> 5 µM
same,IC50,KNS-42,> 5 µM
same,IC50,NCI-H720,0.172 µM
same,IC50,MV4-11,0.979 µM
same,IC50,EOL1,1.02 µM
same,IC50,ES6,> 5 µM
same,IC50,EKVX,> 5 µM
same,IC50,LU-139,0.85 µM
same,IC50,COLO-684,> 5 µM
same,IC50,KNS-81-FD,> 5 µM
same,IC50,KS-1,> 5 µM
same,IC50,KM12,3.12 µM
same,IC50,D283 Med,2.24 µM
same,IC50,HAL-01,> 5 µM
same,IC50,NCI-H69,2.72 µM
same,IC50,MFM-223,> 5 µM
same,IC50,HD-MY-Z,3.37 µM
same,IC50,LB373-MEL-D,> 5 µM
same,IC50,NTERA-2-cl-D1,> 5 µM
same,IC50,ES4,1.85 µM
same,IC50,SNU1,> 5 µM
same,IC50,LS-1034,> 5 µM
same,IC50,DSH1,> 5 µM
same,IC50,ATN-1,4.42 µM
same,IC50,KY821,0.888 µM
same,IC50,ES5,2.24 µM
CN(C)C(=N)NC(=N)N [METFORMIN],IC50,LS-411N,10400 µM
same,IC50,TE-11,> 20000 µM
same,IC50,NOS-1,> 20000 µM
same,IC50,NCI-H1838,> 20000 µM
same,IC50,CTV-1,1970 µM
same,IC50,TK-10,> 20000 µM
same,IC50,SK-NEP-1,15000 µM
same,IC50,EC-GI-10,> 20000 µM
same,IC50,TE-10,> 20000 µM
same,IC50,ES3,16900 µM
same,IC50,A3-KAW,> 20000 µM
same,IC50,HCC2218,701 µM
same,IC50,MOLT-16,> 20000 µM
same,IC50,HC-1,4200 µM
same,IC50,SJSA-1,> 20000 µM
same,IC50,LB771-HNC,> 20000 µM
same,IC50,J-RT3-T3-5,> 20000 µM
same,IC50,KLE,> 20000 µM
same,IC50,NCI-H720,534 µM
same,IC50,MV4-11,8430 µM
same,IC50,EOL1,1820 µM
same,IC50,ES6,> 20000 µM
same,IC50,EKVX,> 20000 µM
same,IC50,LU-139,> 20000 µM
same,IC50,COLO-684,> 20000 µM
same,IC50,KNS-81-FD,8880 µM
same,IC50,KS-1,> 20000 µM
same,IC50,KM12,> 20000 µM
same,IC50,D283 Med,> 20000 µM
same,IC50,HAL-01,> 20000 µM
same,IC50,NCI-H69,8560 µM
same,IC50,MFM-223,> 20000 µM
same,IC50,HD-MY-Z,> 20000 µM
same,IC50,NTERA-2-cl-D1,19500 µM
same,IC50,ES4,> 20000 µM
same,IC50,SNU1,8470 µM
same,IC50,LS-1034,> 20000 µM
same,IC50,DSH1,> 20000 µM
same,IC50,ATN-1,8650 µM
same,IC50,KY821,1530 µM
same,IC50,ES5,14700 µM
CCN(CC)CCCCNc1ncc2cc(-c3cc(OC)cc(OC)c3)c(NC(=O)NC(C)(C)C)nc2n1 [PD-173074],IC50,LS-411N,> 2 µM
same,IC50,TE-11,> 2 µM
same,IC50,NOS-1,> 2 µM
same,IC50,NCI-H1838,> 2 µM
same,IC50,CTV-1,> 2 µM
same,IC50,TK-10,> 2 µM
same,IC50,SK-NEP-1,> 2 µM
same,IC50,COLO-800,> 2 µM
same,IC50,CAS-1,> 2 µM
same,IC50,TE-10,> 2 µM
same,IC50,ES3,> 2 µM
same,IC50,SW684,> 2 µM
same,IC50,A3-KAW,> 2 µM
same,IC50,HCC2218,> 2 µM
same,IC50,MOLT-16,> 2 µM
same,IC50,HEL,> 2 µM
same,IC50,NCI-H226,> 2 µM
same,IC50,SJSA-1,> 2 µM
same,IC50,LB771-HNC,> 2 µM
same,IC50,J-RT3-T3-5,> 2 µM
same,IC50,KLE,> 2 µM
same,IC50,KNS-42,> 2 µM
same,IC50,NCI-H720,> 2 µM
same,IC50,MV4-11,> 2 µM
same,IC50,EOL1,0.33 µM
same,IC50,ES6,> 2 µM
same,IC50,EKVX,> 2 µM
same,IC50,LU-139,> 2 µM
same,IC50,COLO-684,> 2 µM
same,IC50,KNS-81-FD,> 2 µM
same,IC50,KS-1,> 2 µM
same,IC50,KM12,> 2 µM
same,IC50,D283 Med,> 2 µM
same,IC50,HAL-01,> 2 µM
same,IC50,NCI-H69,> 2 µM
same,IC50,MFM-223,0.216 µM
same,IC50,HD-MY-Z,> 2 µM
same,IC50,NTERA-2-cl-D1,> 2 µM
same,IC50,ES4,> 2 µM
same,IC50,SNU1,> 2 µM
same,IC50,LS-1034,> 2 µM
same,IC50,DSH1,> 2 µM
same,IC50,ATN-1,> 2 µM
same,IC50,KY821,> 2 µM
same,IC50,ES5,> 2 µM
